Key:
T47D cells = experiment: Inhibitory effects on the proliferation of T47D cells (CellTiter-Glo); assay type: cell-based; settings: Homo sapiens, 168 h, 7 days
In short: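 T47D cells (1000/well, RPMI 1640 + 10% FBS) cultured 24 h, then exposed 7 days at 37 °C to 9 compound concentrations, 3-fold dilutions from 10 μM final. Viability by CellTiter-Glo luminescence; IC50 derived.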

[1] = target: PI3Kα[WT]/[E542K]/[E545K]/[H1047R]/PI3Kβ/γ/δ; experiment: PI3K enzyme activity assay (ADP-Glo); assay type: biochemical; settings: PI3K kinase reaction, isoform not given
Protocol: Experimental Example 1: PI3Kα[WT]/[E542K]/[E545K]/[H1047R]/PI3Kβ/γ/δ Enzyme Activity Assay
PI3Kα[WT], PI3Kα[E542K], PI3Kα[E545K], PI3Kα[H1047R], PI3Kβ, PI3Kγ and PI3Kδ kinase reaction was performed in 384-well plate (PerkinElmer, #6008280), with a reaction system of 4 μL. PI3Kα[WT] enzyme solution (Promega, #V1721) or PI3Kα[E542K] enzyme solution (CarnaBio, #11-413-20N) or PI3Kα[E545K] enzyme solution (CarnaBio, #11-414-20N) or PI3Kα[H1047R] enzyme solution (Promega, #V1741) or PI3Kβ enzyme solution (Promega, #V1751) or PI3Kγ enzyme solution (ThermoFisher, #PV4786) or PI3Kδ enzyme solution (ThermoFisher, #PV6451) were added to 384-well plate, and then gradiently diluted compounds were added (starting at a final concentration of 10 μM, 3-fold dilution, 10 doses), followed by adding PIP2: 3PS (Promega, #V1701) and ATP solution (Promega, #V915B) to the plate. After incubation at 25° C. for 1 h, ADP-Glo reagent buffer (Promega, #V9102) was added to each well. The plate was sealed and incubated at 25° C. for 40 min, and then 10 μL of ADP-Glo detection buffer (Promega, #V9102) was added to each well. After incubating at 25° C. for 40 min, the chemiluminescence value was read using an instrument.
The experimental results are shown in the ADP Glo IC50 column in Table 2.

[2] = Pharmacokinetics in beagle dogs; assay type: in vivo; settings: beagle dog; for AUC / half-life / clearance / Vd: male, plasma; for Vd: read-out: VSS
Protocol: Experimental Example 5: The Pharmacokinetics of the Compound According to the Present Invention in Beagle Dogs
(§1) 9 healthy adult male beagle dogs (three for each administration route of each compound) were fasted overnight (>12 h) before gavage, with free access to water; 4 hours after administration, rats could take food, and were administered via tail vein injection and gastric lavage, respectively. At different time points, forelimb venous blood sample was collected and anti-coagulated, wherein the anticoagulant was EDTA-K2 (the sample was placed in an ice bath after blood collection). The plasma was separated by centrifugation at 3200 g for 10 min, and stored at −70° C. for testing. The plasma concentration of compounds was determined by LC-MS/MS method.
(§2) The plasma concentration of compound at all time points was used to calculate the main pharmacokinetic parameters with Winnolin 8.3 non-compartmental model.
(§3) The area under the concentration-time curve AUCall value: calculated using the trapezoidal method; AUCinf=AUCall+Ct/ke, Ct is the plasma concentration at the last measurable time point, and ke is the elimination rate constant;
(§4) The clearance rate CL=D/AUCinf (D is the administration dosage);
The volume of distribution at steady state Vss=CL×MRT. The mean retention time MRT=AUMC/AUC;

Pharmacokinetics in rats = assay type: in vivo, SD rats; settings: rat; for AUC / half-life / clearance / Vd: male, SD, plasma; for Vd: read-out: VSS
Protocol: Experimental Example 4: The Pharmacokinetics of the Compound According to the Present Invention in Rats
as §1, with “SD rats” for “beagle dogs”, “intravenous” for “forelimb venous”, “4° C. and 6000” for “3200”, “5” for “10”
as §2, §3
The elimination half life t1/2=0.693/ke;
as §4
The volume of distribution at steady state Vss=CL×MRT, The mean retention time MRT=AUMC/AUC;

[3] = po, ig (intragastric), 10 mg/kg
[4] = iv (tail vein injection), 1 mg/kg

| IC50 (T47D cells) [nM] | IC50 [1] [nM] | F ([2]; ig (intragastric), 3 mg/kg) [%] | F ([2]; ig (intragastric), 10 mg/kg) [%] | AUC ([2]; po, ig (intragastric), 3 mg/kg) [ng·h/mL] | half-life ([2]; po, ig (intragastric), 3 mg/kg) [h] | AUC [2, 3] [ng·h/mL] | half-life [2, 3] [h] | AUC ([2]; iv, 1 mg/kg) [ng·h/mL] | clearance ([2]; iv, 1 mg/kg) [mL/min/kg] | half-life ([2]; iv, 1 mg/kg) [h] | Vd ([2]; iv, 1 mg/kg) [L/kg] | AUC (Pharmacokinetics in rats; po, ig (intragastric), 3 mg/kg) [ng·h/mL] | half-life (Pharmacokinetics in rats; po, ig (intragastric), 3 mg/kg) [h] | AUC (Pharmacokinetics in rats; [4]) [ng·h/mL] | clearance (Pharmacokinetics in rats; [4]) [mL/min/kg] | half-life (Pharmacokinetics in rats; [4]) [h] | Vd (Pharmacokinetics in rats; [4]) [L/kg] | F (Pharmacokinetics in rats; ig (intragastric), 3 mg/kg) [%] | Compound |
| --- | --- | --- | --- | --- | --- | --- | --- | --- | --- | --- | --- | --- | --- | --- | --- | --- | --- | --- | --- |
| < 1000 | < 1000 | 74.5 | 49.1 | 4910 | 3.81 | 11000 | 7.7 | 2210 | 7.77 | 3.34 | 0.879 | 4040 | 18 | 1390 | 10.9 | 3.44 | 2.2 | 89.0 | Cc1cc([C@@H](C)Nc2ccc(Cl)nc2C(=O)O)c2nc(-c3ccc(F)cn3)n(C)c(=O)c2c1 [Compound 66, (R)-6-chloro-3-((1-(2-(5-fluoropyridin-2-yl)-3,6-dimethyl-4-oxo-3,4-dihydroquinazolin-8-yl)ethyl)amino)pyridinecarboxylic Acid] |
| < 1000 | < 1000 | 52.4 | 62.8 | 3710 | 4.11 | 13700 | 12.7 | 2390 | 6.9 | 5.56 | 0.663 | 1330 | 2.4 | 1010 | 16.6 | 2.73 | 1.33 | 44.8 | C[C@@H](Nc1ccc(Cl)nc1C(=O)O)c1cc(F)cc2c(=O)n(C)c(-c3ccc(F)cn3)nc12 [Compound 74] |
